Data published in PMC10423028 (FEMS Microbiology Letters, 2023).

Biological target: VFT^pp (periplasmic VFT domain of RmcA^pp) (Pseudomonas putida, UniProt Q88QU8)
Assay: biochemical

Chain of VFT^pp (periplasmic VFT domain of RmcA^pp) (Q88QU8 21-265): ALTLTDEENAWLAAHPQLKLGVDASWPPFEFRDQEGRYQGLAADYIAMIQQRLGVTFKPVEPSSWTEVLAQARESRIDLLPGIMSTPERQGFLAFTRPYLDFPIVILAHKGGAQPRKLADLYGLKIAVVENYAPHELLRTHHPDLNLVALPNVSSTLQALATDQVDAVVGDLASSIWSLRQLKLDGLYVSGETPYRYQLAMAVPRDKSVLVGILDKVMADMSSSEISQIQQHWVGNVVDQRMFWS

N=C(N)NCCC[C@H](N)C(=O)O [L-arginine]
Kd: 7.1 ± 2.2 µM
